We go through 3 compounds from patent publication US20080312209A1, “Piperazine Heteroaryl Derivatives as Gpr38 Agonists” (Glaxo Group Limited, priority 2005, published 2008).

For test [1], the target named is T1, hGPR38R (Homo sapiens, UniProt O43193). Kind of test: GPR38 FLIPR functional agonist assay. It counts as cell-based. On the set-up: expressed in transfected cells. Particulars: HEK-293 cells stably expressing the GPR38 receptor, agonist response, Fluo-4 fluorescence. On the procedure:
The potencies and efficacies of the compounds of this invention for GPR^38 can be determined by FLIPR assay performed on the human cloned receptor as described herein. It has been found, using the FLIPR functional assay, that compounds of formula (I) appear to be partial or full agonists of the GPR38 receptor.
GPR38FLIPR Functional Agonist Assay Protocol
HEK-293 cells stably expressing the GPR38 receptor were seeded (10,000 cells/well) into poly-D-lysine coated 384-well black-wall, clear-bottom microtitre plates (Becton Dickinson) 24 h prior to assay. On day of assay, cells were washed (×2) with 80 ul of assay buffer (Hanks Balanced Salts Solution (HBSS), 10 mM HEPES, 200 μM Ca^2+, 2.5 mM probenecid) using the EMBLA cell washer. After the final wash, buffer was aspirated to leave a residual volume of 30 ul on the cells. Cells were loaded with 1 μM (final) Fluo-4-AM fluorescent indicator dye (TefLabs) in assay buffer, (20 ul loading solution added to each well using the Multidrop). Plates were incubated for 1 h at 37° C., before being washed (×3) with 80 ul assay buffer using the EMBLA cell washer; 30 ul residual being left after the final wash. Plates were then assayed on a Fluorometric Imaging Plate Reader (FLIPR, Molecular Devices). Test compounds were prepared in assay buffer without probenecid, but containing 0.03% CHAPS. In the FLIPR, 10 ul of test compound was added to the cells and changes in fluorescence measured over a 2 min timeframe. Maximum change in fluorescence over baseline was used to determine agonist response and concentration response curves were constructed, using a 4-parameter logistic equation.
(§1) The following alternative procedure may also be used:
HEK-293 cells stably expressing the GPR38 receptor were seeded (30,000 cells/100 ul growth media/well) into poly-D-lysine coated 96-well black-wall, clear-bottom microtitre plates (Corning) 24 hours prior to assay. On the day of assay the cells were loaded with 2 μM (final) Fluo-4-AM fluorescent indicator dye (Molecular Probes) and 1 mM (final) probenicid in assay buffer (145 mM sodium chloride, 2.5 mM potassium chloride, 10 mM Hepes, 10 mM glucose, 1.2 mM magnesium chloride, 1.5 mM calcium chloride and 0.1% BSA) (50 ul loading solution added to each well). Plates were incubated for 1 hour at 25° C., before being washed 4 times with 100 ul assay buffer using the EMBLA cell washer; 150 ul residual being left after the final wash. The cells were then incubated at 25° C. for 20 minutes and the plates were then assayed on a Fluorometric Imaging Plate Reader (FLIPR, Molecular Devices). Test compounds were prepared in assay buffer without probenecid. In the FLIPR, 50 ul of test compound was added to the cells and changes in fluorescence measured over a 2 minute timeframe. Maximum change in fluorescence over baseline was used to determine agonist response and concentration response curves were constructed, using a 4-parameter logistic equation.
Target sequence in this assay (O43193 whole entry): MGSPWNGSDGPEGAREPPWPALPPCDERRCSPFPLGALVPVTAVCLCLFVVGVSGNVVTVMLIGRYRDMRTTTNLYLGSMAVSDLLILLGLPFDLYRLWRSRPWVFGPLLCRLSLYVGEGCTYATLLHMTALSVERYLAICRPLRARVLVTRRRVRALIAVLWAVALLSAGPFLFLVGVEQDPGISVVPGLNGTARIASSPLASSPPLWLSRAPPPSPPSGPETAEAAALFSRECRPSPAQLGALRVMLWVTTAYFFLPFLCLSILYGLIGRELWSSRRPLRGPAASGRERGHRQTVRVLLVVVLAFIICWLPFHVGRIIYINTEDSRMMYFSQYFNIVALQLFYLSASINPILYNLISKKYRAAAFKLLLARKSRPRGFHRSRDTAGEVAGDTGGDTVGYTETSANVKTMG

Test [2] deals with T1, hGPR38R. Briefly: GPR38 GTPγS functional agonist assay. It counts as biochemical. Also noted: expressed in transfected cells; host or cells: HEK293 (transient transfection; P2 membrane fractions). The method, then: The potencies and intrinsic activities of the compounds of this invention can also be determined according to the [35S]GTPγS functional assay which is described herein. It has been found, using the [35S]GTPγS functional assay, that compounds of formula (I) appear to be partial or full agonists of the GPR38 receptor.
GPR38GTPγS Functional Agonist Assay Protocol
For each compound being assayed, in an Opti clear bottom 96 well plate, is added:—
(a) 20 μl of test compound (or 10 μl of guanosine 5′-triphosphate (GTP) as non-specific binding control) diluted to required concentration in assay buffer (20 mM N-2-Hydroxyethylpiperazine-N′-2-ethanesulfonic acid (HEPES)+100 mM NaCl+10 mM MgCl2, pH adjusted to 7.4 with NaOH); (b) 60 μl bead/membrane/GDP mix prepared by suspending wheat germ agglutinin-polyvinyltoluene (WGA-PVT) scintillation proximity assay (SPA) beads at 100 mg/ml in assay buffer followed by mixing with membrane (prepared in accordance with the methodology described above) and diluting in assay buffer to give a final volume of 60 μl which contains 10 μg protein and 0.5 mg bead per well—mixture is pre-mixed at 4° C. for 30 min on a roller and just prior to addition to the plate, 10 μM final concentration of guanosine 5′ diphosphate (GDP—diluted in assay buffer) is added; (c) 20 μl guanosine 5′ [γ35-S]thiotriphosphate, triethylamine salt (Amersham; radioactivity concentration=37 kBq/μl or 1 mCi/ml; Specific Activity 1160 Ci/mmol) diluted to 1.9 nM in assay buffer to give 0.38 nM final.
The plate is incubated on a shaker at 25° C. for 30 min followed by centrifugation for 5 min at 1500 rpm. The plate is read between 3 and 6 h after completion of centrifuge run in a Wallac Microbeta counter on a 1 min normalised tritium count protocol. Data is analysed using a 4-parameter logistic equation. Basal activity used as minimum.
as §1
Target sequence in this assay (O43193 whole entry): as above
Target sequence in this assay (P09471 2-354 partner limits assumed): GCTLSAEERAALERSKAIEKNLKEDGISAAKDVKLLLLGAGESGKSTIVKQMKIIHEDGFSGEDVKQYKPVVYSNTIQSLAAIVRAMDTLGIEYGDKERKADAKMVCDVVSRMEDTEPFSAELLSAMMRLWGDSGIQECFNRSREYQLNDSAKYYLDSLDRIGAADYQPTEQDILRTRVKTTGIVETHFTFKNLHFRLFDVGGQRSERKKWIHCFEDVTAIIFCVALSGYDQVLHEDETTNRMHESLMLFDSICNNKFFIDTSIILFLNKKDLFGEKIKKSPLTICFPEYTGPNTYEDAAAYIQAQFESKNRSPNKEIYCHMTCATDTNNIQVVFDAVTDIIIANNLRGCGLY
Target sequence in this assay (P62873 2-340 partner limits assumed): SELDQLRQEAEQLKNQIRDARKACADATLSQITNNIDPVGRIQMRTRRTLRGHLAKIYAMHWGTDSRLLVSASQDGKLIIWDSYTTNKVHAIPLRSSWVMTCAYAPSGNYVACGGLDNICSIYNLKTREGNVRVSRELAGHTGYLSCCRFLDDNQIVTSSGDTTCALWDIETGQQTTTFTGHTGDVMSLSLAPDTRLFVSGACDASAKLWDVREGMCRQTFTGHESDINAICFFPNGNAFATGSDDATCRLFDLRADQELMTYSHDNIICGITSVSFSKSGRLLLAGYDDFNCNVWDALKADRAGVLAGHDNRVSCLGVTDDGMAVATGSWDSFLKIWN
Target sequence in this assay (P59768 2-68 partner limits assumed): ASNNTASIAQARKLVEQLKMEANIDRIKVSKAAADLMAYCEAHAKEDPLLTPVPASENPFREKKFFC
Membranes are derived from bulk cell cultures of HEK293 cell lines transiently transfected with hGPR38R and Go G-protein. P2 membranes fractions are prepared, aliquoted and stored at −80° C.
For each compound being assayed, the following is added into a white Greiner 384 well plate:—
(a) 1 μl of test compound diluted to required concentration in DMSO. (b) 20 μl bead/membrane/Saponin/GDP mix prepared as follows;—suspension of LEADseeker wheat germ agglutinin (WGA) scintillation proximity assay (SPA) beads at 25 mg/ml in assay buffer (20 mM N-2-Hydroxyethylpiperazine-N′-2-ethanesulfonic acid (HEPES)+100 mM NaCl+10 mM MgCl2, pH adjusted to 7.4 with KOH) containing saponin at 150 ug/ml. Mixing of bead suspension with membranes at 500 ug/ml (prepared in accordance with the methodology described above) and diluting in assay buffer to give a final volume of 20 μl which contains 5 μg protein and 0.25 mg bead per well.
Mixture is pre-mixed for 30 minutes on a roller and just prior to addition to the plate, 3 μM final assay concentration of guanosine 5′ diphosphate (GDP) (diluted in assay buffer) is added.
(c) 25 μl guanosine 5′ [γ35-S]thiotriphosphate, triethylamine salt (Amersham; radioactivity concentration=37 kBq/μl or 1 mCi/ml; Specific Activity 1160 Ci/mmol) diluted to 0.6 nM in assay buffer to give 0.33 nM final assay concentration.
The plate is then spun for 2 minutes at 1500 rpm and then incubated at room temperature for 4 hours. The plate is then read on a Viewlux Plux (Perkin Elmer). Data is analysed using a 4-parameter logistic equation.

[3] abbreviates: read-out: pEC50 in the FLIPR assay (converted).
[4] abbreviates: [35S]GTPγS SPA, HEK293 membranes with hGPR38R and Go G-protein, read-out: pEC50 in the GTPγS assay (converted).

Take `C[C@@H]1CN(Cc2ccc(-c3cccnc3S(=O)(=O)N3CCC(Nc4ccccc4F)CC3)cc2F)C[C@H](C)N1` [Example 20, 1-{[3-(4-{[(3R,5S)-3,5-Dimethyl-1-piperazinyl]methyl}-3-fluorophenyl)-2-pyridinyl]sulfonyl}-N-(2-fluorophenyl)-4-piperidinamine]: the values for the EC50 on hGPR38R [1] (setting [3]) and at hGPR38R [2] (setting [4]) were less than 1000 nM and less than 3160 nM, respectively.
For `C[C@@H]1CN(Cc2ccc(-c3cccnc3C(=O)N3CCC(Nc4cccc(C#N)c4)CC3)cc2)C[C@H](C)N1` [Example 29, 3-[(1-{[3-(4-{[(3R,5S)-3,5-dimethyl-1-piperazinyl]methyl}phenyl)-2-pyridinyl]carbonyl}-4-piperidinyl)amino]benzonitrile] the same measures were less than 316 nM and less than 3160 nM.
For `C[C@@H]1CN(Cc2ccc(-n3ccnc3C(=O)N3CCC(Nc4cccc(F)c4)CC3)cc2)C[C@H](C)N1` [Example 21, 1-{[1-(4-{[(3R,5S)-3,5-Dimethyl-1-piperazinyl]methyl}phenyl)-1H-imidazol-2-yl]carbonyl}-N-(3-fluorophenyl)-4-piperidinamine], the EC50 on hGPR38R [1] (pEC50 in the FLIPR assay) is less than 316 nM; at hGPR38R [2], less than 3160 nM.
